Source: patent US8492560B2, “Quinazoline derivatives as angiogenesis inhibitors” (AstraZeneca AB, priority 1999, dated 2013)

| melting point [°C] | SMILES |
| --- | --- |
| 80 to 82 | COc1cc2c(Oc3cccc4[nH]ccc34)ncnc2cc1OCCCN1CCCCC1 [Example 169, 4-(indol-4-yloxy)-6-methoxy-7-(3-piperidinopropoxy)quinazoline] |
| 75 to 77 | COc1cc2c(Oc3ccc4[nH]cc(C)c4c3)ncnc2cc1OCCCN1CCCC1 [Example 179, 6-methoxy-4-(3-methylindol-5-yloxy)-7-(3-(pyrrolidin-1-yl)propoxy)quinazoline] |
| 184 to 185.5 | COc1cc2c(Oc3cnc4[nH]ccc4c3)ncnc2cc1OCCCN1CCCC1 [Example 182, 6-methoxy-7-(3-(pyrrolidin-1-yl)propoxy)-4-(1H-pyrrolo[2,3-b]pyridin-5-yloxy)quinazoline] |
| 250 to 251 | COc1cc2c(Oc3ccc4[nH]c(C)cc4c3)ncnc2cc1OCC1CCN(C)C(=O)C1 (stereo not shown) [Example 268, 6-methoxy-4-(2-methylindol-5-yloxy)-7-(1-methyl-2-oxopiperidin-4-ylmethoxy)quinazoline] |
